The conditions of data set [1]: cited from earlier work.
Data set [2] can be described thus: Optical characteristics (absorption, fluorescence, excitation spectra) in 100 mM sodium phosphate buffer. The data set is classed as physicochemical. The settings on record: for absorption maximum / absorption wavelength, acidic pH: acidic solution; for absorption maximum / absorption wavelength, basic pH: basic solution. Here is the method:
The spectral characteristics of compound 1 of the present invention (2,6-diMe BnPiperaIndoSiR) were evaluated. The absorption spectrum, fluorescence spectrum, and excitation spectrum were measured using a Shimadzu UV-1650PC absorption spectrophotometer and a Hitachi F-4500 fluorometer.
(§1) FIG. 2a represents the assumed chemical equilibrium equation of 2,6-diMe BnPiperaIndoSiR. FIGS. 2b, 2c, and 2d respectively represent the absorption, fluorescence, and excitation spectra of 2,6-diMe BnPiperaIndoSiR in 100 mM sodium phosphate buffer (containing 1% DMSO) of different pH.
The spectral characteristics of compound 2 of the present invention (SiRpH3) were evaluated. The absorption spectrum fluorescence spectrum, and excitation spectrum were measured using a Shimadzu UV-1650PC absorption spectrophotometer and a Hitachi F-4500 fluorometer.
(§2) FIGS. 3a, 3b, and 3c represent the absorption, fluorescence, and excitation spectra of SiRpH3 in 100 mM sodium phosphate buffer (containing 1% DMSO) of different pH.
The spectral characteristics of compound 3 of the present invention (SiRpH4) were evaluated. The absorption spectrum fluorescence spectrum, and excitation spectrum were measured using a Shimadzu UV-1650PC absorption spectrophotometer and a Hitachi F-4500 fluorometer.
(§3) FIGS. 4a and 4b represent the absorption and excitation spectra of SiRpH4 in 100 mM sodium phosphate buffer (containing 1% DMSO) of different pH.
The spectral characteristics of compound 4 of the present invention (SiRpH5) were evaluated. The absorption spectrum fluorescence spectrum, and excitation spectrum were measured using a Shimadzu UV-1650PC absorption spectrophotometer and a Hitachi F-4500 fluorometer.
(§4) FIG. 5a represents the assumed chemical equilibrium equation of SiRpH5. FIGS. 5b and 5c represent the absorption and excitation spectra of SiRpH5 in 100 mM sodium phosphate buffer (containing 1%) DMSO) of different pH.

The nature of data set [3]: pKa of the protonation reaction from plot of absorbance or fluorescence intensity ratio vs. pH. The data set is classed as physicochemical. The settings on record: for pKa of the protonation reaction: 100 mM sodium phosphate buffer, 1% DMSO. The procedure: as §1, §2, §3, §4
The mark [4] stands for this setting: pH 3.0, 100 mM sodium phosphate buffer.
[5] abbreviates: pH 10.0, 100 mM sodium phosphate buffer.
[6] abbreviates: Table 2, pH 3.0, 100 mM sodium phosphate buffer.
Setting [7] is: Table 2, pH 7.4, 100 mM sodium phosphate buffer.
Where [8] appears, read: Table 2, pH 10.0, 100 mM sodium phosphate buffer.
Setting [9] is: Table 3, pH 3.0, 100 mM sodium phosphate buffer.
Setting [10] is: Table 3, pH 10.0, 100 mM sodium phosphate buffer.

Like-named read-outs stand apart in the source and are kept apart here.

Usually pKa stands for the negative logarithm of the acid dissociation constant. In the case of “2′,7′-bis-(2-carboxyethyl)-5- (and -6-)carboxyfluoresceins [BCECF]”, the pKa in data set [1] is 7.0.

For `Cc1cccc(C)c1C1=c2cc3c(cc2[Si](C)(C)c2cc(N4CCN(Cc5ccccc5)CC4)ccc21)=[N+](C)CC3.O=C(O)C(F)(F)F` [2,6-diMe BnPiperaIndoSiR], in data set [2] (setting [4]), the Absmax is listed as 588 nm, the E is 26,000 M^−1 cm^−1, the Emmax was 676 nm and the Φfl came to 0.19. In data set [2] (setting [5]), the Absmax was determined as 663 nm, the E is 33,000 M^−1 cm^−1, the Emmax is on record as 689 nm and the Φfl is reported as 0.12. In addition, the “decrease of pKa in comparison to 2-Me MePiperaIndoSiR” value in data set [3] (by benzylation of the piperazine aliphatic amino group) is 0.9. For the same molecule, in data set [3] (from changes in absorbance at 663 nm when the pH was varied), the “pKa of the protonation reaction” value is on record as 6.4.

Take `Cc1cccc(C)c1C1=c2cc3c(cc2[Si](C)(C)c2cc(N4CCN(Cc5cccc(F)c5)CC4)ccc21)=[N+](C)CC3.O=C(O)C(F)(F)F` [SiRpH3]: in data set [2], the “lengthening of the absorption wavelength as the pH moved from acidic to basic” value is “approximately 80 nm”; the “absorption maximum / absorption wavelength, acidic pH” value was “approximately 580 nm”; the “absorption maximum / absorption wavelength, basic pH” value is “approximately 660 nm”. Also, in data set [2] (setting [6]), the Absmax is on record as 585 nm, the E is recorded as 25,000 M^−1cm^−1, the Emmax amounted to 676 nm and the Φfl is 0.20. Besides, in data set [2] (setting [7]), the Absmax was 662 nm, the E is on record as 30,000 M^−1cm^−1, the Emmax stood at 688 nm and the Φfl came out at 0.12. For the same molecule, in data set [2] (setting [8]), the Absmax is listed as 663 nm, the E is given as 31,000 M^−1cm^−1, the Emmax came to 689 nm and the Φfl amounted to 0.11.

Regarding `Cc1cccc(C)c1C1=c2cc3c(cc2[Si](C)(C)c2cc(N4CCN(Cc5ccccc5S(=O)(=O)O)CC4)ccc21)=[N+](C)CC3` [SiRpH4], the “shift of the pKa of the ratio value change” value in data set [3] is listed as “shifted to the basic side in comparison to SiRpH3”.

`Cc1cc(C(=O)O)cc(C)c1C1=c2cc3c(cc2[Si](C)(C)c2cc(N4CCN(Cc5ccc(S(=O)(=O)O)cc5S(=O)(=O)O)CC4)ccc21)=[N+](C)CC3.O=C([O-])C(F)(F)F` [SiRpH5]: in data set [2] (setting [9]), the Λem stood at 679 nm, the Λex stood at 588 nm, the Φfl turned out to be 0.21 and the ε was 23,000 M^−1cm^−1. In data set [2] (setting [10]), the Λem is on record as 690 nm, the Λex came out at 668 nm, the Φfl turned out to be 0.08 and the ε is on record as 33,000 M^−1cm^−1. Moreover, in data set [2], the “absorption maximum / absorption wavelength, acidic pH” value is reported as “approximately 590 nm” and the “absorption maximum / absorption wavelength, basic pH” value is “approximately 670 nm”. Moreover, in data set [3] (from plot of fluorescence intensity ratio (700 nm, excitation 580 nm / 663 nm) vs. pH), the “pKa of the protonation reaction” value was found to be 6.1. In data set [3] (in comparison to the named probe), the “shift of the pKa of the ratio value change” value was “shifted to the acidic side in comparison to SiRpH4”.
